{"source": "patent US12171764B2", "about": "“Treatment of a disease of the gastrointestinal tract with a JAK or other kinase inhibitor” (BIORA THERAPEUTICS, INC., priority 2018, dated 2024)", "key": {"[1]": {"experiment": "Example 10: tacrolimus blood/plasma pharmacokinetics, oral vs intra-cecal ingestible device delivery", "format": "in vivo, Yorkshire-Cross farm swine", "description": "(§1) The primary objective of this study was to compare the tissue, plasma, rectal sample, and GI content pharmacokinetics of tacrolimus through oral versus intra-cecal ingestible device delivery in normal Yorkshire-Cross farm swine.\n(§2) No further randomization procedure was employed.\nAnimals in Group 1 received an ingestible device containing 0.8 mL of vehicle solution (80% alcohol, 20% HCO-60). Animals in Group 2 received orally […] liquid formulation of tacrolimus at 4 mg/0.8 mL per animal (Prograf: 5 mg/mL). Animals in Group 3 received intra-cecally an ingestible device containing tacrolimus at 1 mg in 0.8 mL per ingestible device. Animals in Group 4 received intra-cecally an ingestible device containing tacrolimus at 2 mg in 0.8 mL per ingestible device. Animals in Group 5 received intra-cecally an ingestible device containing tacrolimus at 4 mg in 0.8 mL per ingestible device. To control for potential confounding effects of the surgery, all groups fast on Day −11 at least 24 hr before being subjected to anesthesia followed by surgical placements of a cecal port by a veterinary surgeon at Day −10. All animals were fasted for at least 12 hr prior to dosing on Day 1. Animals were dosed via either intra-cecal dosing (IC) or oral dosing (PO) at Day 1 (between 6-8 p.m.). All animals resumed feeding at approximately 4 hours after dose (11-12 p.m. after dosing).\nApproximately 200˜400 mg of rectal content were collected, if available, with a fecal swab (Copan Diagnostics Nylon Flocked Dry Swabs, 502CS01). The fecal swab was pre-weighed and weighed after collection in the collection tube (Sterile Tube and Cap No Media, PFPM913S), and the sample weight was recorded. The fecal swab was broken via the breakpoint, and was stored in the collection tube, and immediately frozen at −70° C. […] Immediately following euthanasia, tissue was collected.\n[…] Plasma, rectal content sample, tissue collection, GI content collection and related procedures/storage/shipments was the same as those employed in Group 1.\nGroup 3 animals were administered a single intra-cecal ingestible device containing tacrolimus at 1-mg/0.8 mL (0.02 mg/kg) (in the vehicle solution) on Day 1 by a veterinary surgeon. […] All samples were analyzed for tacrolimus.\nGroup 4 animals were administered a single intra-cecal ingestible device of tacrolimus at 2 mg/0.8 mL (0.04 mg/kg) (in sterile vehicle solution) on Day 1 by a veterinary surgeon. […] All samples were analyzed for tacrolimus.\nGroup 5 animals are administered a single intra-cecal ingestible device containing tacrolimus at 4 mg/0.8 mL (0.08 mg/kg) (in the vehicle solution) on Day 1 by a veterinary surgeon. […] All samples were analyzed for tacrolimus. […]"}, "[2]": {"experiment": "Example 13: tacrolimus blood pharmacokinetics, oral vs intra-cecal administration", "format": "in vivo, Yorkshire-Cross farm swine", "conditions": "swine", "excerpt": "as §2"}, "[3]": {"experiment": "Example 10: tacrolimus in GI tissue, luminal content and rectal content, oral vs intra-cecal ingestible device delivery", "format": "in vivo, Yorkshire-Cross farm swine", "conditions": "FIG. 92", "description": "as §1\nAnimals in Group 1 received an ingestible device containing 0.8 mL of vehicle solution (80% alcohol, 20% HCO-60). Animals in Group 2 received orally […] liquid formulation of tacrolimus at 4 mg/0.8 mL per animal (Prograf: 5 mg/mL). Animals in Group 3 received intra-cecally an ingestible device containing tacrolimus at 1 mg in 0.8 mL per ingestible device. […]\nApproximately 200˜400 mg of rectal content were collected, if available, with a fecal swab (Copan Diagnostics Nylon Flocked Dry Swabs, 502CS01). The fecal swab was pre-weighed and weighed after collection in the collection tube (Sterile Tube and Cap No Media, PFPM913S), and the sample weight was recorded. […]\nFor tissue necropsy, small intestine fluid and cecal fluid were collected separately from all the animals into two separate square plastic bottles, and stored at −20° C. The length and diameter of the cecum and the colon was measured from one animal in each group and recorded for reference. […] All samples were weighed, and the tissue sample weights were recorded. […] Around 3 grams of the total punched sample were collected into a pre-weighed 15-mL conical tube, and the tissue weight was recorded. […]"}, "[4]": {"conditions": "animals treated IC (Groups 5-6); FIG. 110", "procedure": "Briefly, samples were analyzed by LC-MS/MS against matrix-matched standard curves."}, "[5]": {"tested_on": "IL-6, GM-CSF, IL-15, IL-2, IL-12, IL-13, TNF-α, and INF-γ", "experiment": "Tofacitinib pharmacodynamics: JAK/STAT pathway cytokines in plasma and colon tissue by ELISA in DSS-induced colitis mice", "format": "in vivo, male C57BL/6 mice"}, "[6]": {"conditions": "C57BL/6, mouse, in vivo, po, 15 mg/kg"}, "[7]": {"conditions": "C57BL/6, mouse, in vivo, 10 mg/kg"}}, "note": "Read-outs that look alike come from different tables or passages of the source.", "data": [{"compound": "C=CC[C@@H]1/C=C(\\C)C[C@H](C)C[C@H](OC)[C@H]2O[C@@](O)(C(=O)C(=O)N3CCCC[C@H]3C(=O)O[C@H](/C(C)=C/[C@@H]3CC[C@@H](O)[C@H](OC)C3)[C@H](C)[C@@H](O)CC1=O)[C@H](C)C[C@@H]2OC", "note": "[tacrolimus]", "values": [{"measurement": "Tmax", "setting": "[1]; Route IC, Dose 0.02 (mg · kg)", "result": 1}, {"measurement": "Cmax", "setting": "[1]; Route IC, Dose 0.04 (mg · kg)", "result": "9.197 ± 3.30", "unit": "ng/mL"}, {"measurement": "AUC 0-12 hr", "setting": "[1]; Route PO, Dose 0.09 (mg · kg)", "result": "16.83 ± 3.641", "unit": "ng·h/mL"}, {"measurement": "Tmax", "setting": "[1]; Route PO, Dose 0.09 (mg · kg)", "result": 1}, {"measurement": "Trough (12 hr)", "setting": "[2]; IC 0.02 mg/kg (Group 3)", "result": 0.746, "unit": "ng/mL"}, {"measurement": "Cmax", "setting": "[2]; IC 0.04 mg/kg", "result": "9.197 ± 3.30", "unit": "ng/mL"}, {"measurement": "Trough (12 hr)", "setting": "[2]; IC 0.04 mg/kg (Group 4)", "result": 1.96, "unit": "ng/mL"}, {"measurement": "Trough (12 hr)", "setting": "[2]; IC 0.09 mg/kg (Group 5)", "result": 4.35, "unit": "ng/mL"}, {"measurement": "Cmax", "setting": "[2]; PO 0.09 mg/kg", "result": "3.53 ± 3.84", "unit": "ng/mL"}, {"measurement": "Trough (12 hr)", "setting": "[2]; PO 0.09 mg/kg (Group 2), 0.09 mg/kg", "result": 0.568, "unit": "ng/mL"}, {"measurement": "rectal content concentration at 12 hours post-treatment", "setting": "[3]; IC capsule groups", "result": "higher rectal content concentration"}, {"measurement": "rectal content concentration at 12 hours post-treatment", "setting": "[3]; PO group", "result": "no detectable level"}]}, {"compound": "C[C@@H]1CCN(C(=O)CC#N)C[C@@H]1N(C)c1ncnc2[nH]ccc12.O=C(O)CC(O)(CC(=O)O)C(=O)O", "note": "[tofacitinib citrate]", "values": [{"measurement": "blood exposure", "setting": "[4]", "result": "limited blood exposure"}, {"measurement": "IL-6 expression in plasma", "setting": "[5]; PO or IC administration, 1 h and 3 h post-treatment (data not shown)", "result": "inhibition of IL-6 expression was observed"}, {"measurement": "IL-6 expression in colon tissue", "setting": "[5]; all IC treated groups and the high dose PO group (45 mg/kg), FIG. 112B", "result": "inhibition of IL-6 expression was sustained through 24 h post-dose"}, {"measurement": "IL-6 expression in colon tissue", "setting": "[5]; low dose PO group (15 mg/kg) by 12 h post-dose", "result": "Recovery from IL-6 inhibition was observed"}]}, {"compound": "C[C@@H]1CCN(C(=O)CC#N)C[C@@H]1N(C)c1ncnc2[nH]ccc12", "note": "[tofacitinib, 3-[(3R,4R)-4-methyl-3-[methyl(7H-pyrrolo[2,3-d]pyrimidin-4-yl)amino]piperidin-1-yl]-3-oxopropanenitrile]", "values": [{"measurement": "T1/2", "setting": "[6]", "result": 2.53, "unit": "h"}, {"measurement": "T1/2", "setting": "[7]", "result": 2.16, "unit": "h"}, {"measurement": "GM-CSF levels in plasma or colon tissue", "setting": "[5]; IC vs PO treatment groups (data not shown)", "result": "nor was there a significant difference in GM-CSF levels"}]}]}
